According to article PMC3236199, “Development of Derivatives of 3, 3′-Diindolylmethane as Potent Leishmania donovani Bi-Subunit Topoisomerase IB Poisons” (PLoS ONE, 2011):

Legend:
LdTOP1LS = experiment: Plasmid cleavage assay; assay type: biochemical, Leishmania donovani; conditions: 50 µM, pHOT1 DNA
Protocol: Cleavage assay was carried out as described previously. Briefly, 50 fmol of pHOT1 supercoiled DNA (containing topoisomerase I cleavage site) and 100 fmol of reconstituted LdTOP1LS were incubated in standard reaction mixture (50 µl) containing 50 mM Tris/HCl (pH 7.5), 100 mM KCl, 10 mM MgCl2, 0.5 mM DTT, 0.5 mM EDTA and 30 µg/ml BSA in the presence of various concentrations of drugs at 37°C for 30 min. The reactions were terminated by adding 1% SDS and 150 µg/ml proteinase K and further incubated for 1 h at 37°C. DNA samples were electrophoresed in a 1% agarose gel containing 0.5 µg/ml EtBr.
The effect of DIM and its derivatives on L. donovani topoisomerase I was examined by plasmid DNA cleavage assay as described. The topoisomerase reaction has three general mechanistic steps: (i) binding of enzyme to the substrate DNA, (ii) single strand breakage and subsequent strand rotation through the break leading to change in linking number, and (iii) strand religation. The second step of reaction is the introduction of a single-stranded nick in the phosphodiester bond of the DNA, through which an intact strand is allowed to pass. […]

[1] = system: L. donovani topoisomerase I; experiment: Immunoband depletion assay, topoisomerase I; assay type: cell-based, Leishmania donovani; conditions: preincubation with 20 µM DHBA before DIM, DPDIM, DMDIM or DMODIM
Protocol: Leishmania cells (3×10^7) were cultured in absence and presence of the drugs. Nuclear fractions were isolated as described. Briefly, cells were suspended in hypotonic buffer (10 mM Tris-HCl, pH 7.5, 1 mM EDTA, 0.1 mM EGTA, 1 mM PMSF, 1 mM benzamidine hydrochloride and 5 mM DTT) and homogenized. The homogenate was centrifuged for 10 min at 10,000 g. The pellets were washed and used as the source of nuclear fraction. Thereafter, the nuclear fractions were lysed with 1% SDS and subjected to SDS-PAGE (10%). The proteins were electrophoretically transferred to nitrocellulose membranes and immumobloting of immobilized proteins were carried out using a rabbit polyclonal antibody raised against LdTOP1S for topoisomerase I and ATPase domain of L. donovani topoisomerase II [8].
We have reported earlier that DIM induces topoisomerase I and not topoisomerase II-mediated cleavable complex formation in L. donovani. To investigate the ability of DIM derivatives to induce in vivo covalent complex formation between topoisomerase I and DNA in the Leishmania parasites we performed the immunoband depletion experiments with L. donovani promastigotes. Nuclear fractions were prepared from untreated as well as drug-treated promastigotes and subjected to SDS-PAGE. If topoisomerase I can form a covalent complex with genomic DNA inside the cells, then topoisomerase I-DNA cleavable complex cannot enter into the gel. […] The presence of topoisomerase I was detected by immunoblotting as described in ‘Materials and Methods’. It was observed that the immunoband of topoisomerase I disappeared in presence of 20 µM of DIM, DPDIM, DMDIM and DMODIM for 6 h incubation respectively (lanes 2–5). […] It should be mentioned here that topoisomerase I of Leishmania is a heterodimer and the catalytic site (SKXXY) is present in the small subunit of enzyme (LdTOP1S), which is involved in the formation of topoisomerase I-DNA covalent complex. So we have used the antibody raised against the small subunit of L. donovani topoisomerase I to study the immunoband depletion assay.
Figure 6 DIM-derivatives induce in vivo formation of topoisomerase-DNA cleavable complex within the cells. Stabilization of topoisomerase-I mediated cleavable complex was determined by immunoband depletion assay. Top panel: Immunoband depletion of L. donovani topoisomerase I, using an antibody raised against […]. Leishmanial cells were treated with 0.2% DMSO alone (lane 1), 20 µM each of DIM (lane 2), DPDIM (lane 3), DMDIM (lane 4) and DMODIM (lane 5) respectively. Lanes 6–9, preincubation with 20 µM DHBA before treatment with DIM, DPDIM, DMDIM and DMODIM respectively. Bottom panel: β-tubulin loading control.

CC[C@@]1(O)C(=O)OCc2c1cc1n(c2=O)Cc2cc3ccccc3nc2-1 [CPT, camptothecin, reference compound]
conversion of closed circular DNA (form I) to nicked circular DNA (form II) (LdTOP1LS): totally converted to nicked circular DNA

CC(C)[C@@H]1CC[C@]2(C(=O)O)CC[C@]3(C)C(CCC4[C@@]5(C)CC[C@H](O)C(C)(C)C5CC[C@]43C)C12 (some centres unmarked) [DHBA, reference compound]
immunoband of topoisomerase I after preincubation before treatment with drugs [1]: reappearance of immunoband
